Tested on: mice
Test: Observation of abnormal behavior after oral dosing in mice
Assay type: in vivo
Conditions: 100 mg/kg p.o., during 24 hour after dosing

abnormal behavior	Structure (SMILES)
did not cause any abnormal behavior	CS(=O)(=O)N1CC2(CCN(C(=O)Nc3cnc(-c4ccccc4)cn3)CC2)c2ccccc21 [Compound 100, 1 -Methanesulfonyl-N-(5-phenyl-2-pyrazinyl)spiro[indoline-3,4′-piperidine]-1′-carboxamide]

Tested on: not given
Test: not given
Conditions: not given

melting point [°C]	Structure (SMILES)
262 to 266	CS(=O)(=O)N1CC2(CCN(C(=O)Nc3cnc(-c4nncs4)cn3)CC2)c2cc(F)ccc21 [Compound 150, 5-fluoro-1-methylsulfonyl-N-[5-(1,3,4-thiadiazol-2-yl)-2-pyrazinyl]spiro[indoline-3,4′-piperidine]-1′-carboxamide]
216 to 218	COc1cccc(-n2cnc(NC(=O)N3CCC4(CC3)CN(S(C)(=O)=O)c3ccccc34)c2)c1 [Compound 126, N-[1-(3-methoxyphenyl)imidazol-4-yl]-1-methylsulfonylspiro[indoline-3,4′-piperidine]-1′-carboxamide]
252 to 254	CS(=O)(=O)N1CC2(CCN(C(=O)Nc3ccc(N4CCCC4)nc3)CC2)c2ccccc21 [Compound 116, 1-methylsulfonyl-N-[2-(1-pyrrolidinyl)-5-pyridyl]spiro[indoline-3,4′-piperidine]-1′-carboxamide]
193 to 194	CCS(=O)(=O)N1CC2(CCN(C(=O)Nc3cnc(-c4nncs4)cn3)CC2)c2ccccc21 [Compound 152, 1-ethylsulfonyl-N-[5-(1,3,4-thiadiazol-2-yl)-2-pyrazinyl]spiro[indoline-3,4′-piperidine]-1′-carboxamide]
237 to 239	CS(=O)(=O)N1CC2(CCN(C(=O)Nc3cnc(-c4ncns4)cn3)CC2)c2ccc(F)cc21 [Compound 149, 6-fluoro-1-methylsulfonyl-N-[5-(1,2,4-thiadiazol-5-yl)-2-pyrazinyl]spiro[indoline-3,4′-piperidine]-1′-carboxamide]
133 to 136	CS(=O)(=O)N1CC2(CCN(C(=O)Nc3nsc(-c4ccccc4)n3)CC2)c2ccccc21 [Compound 123, 1-methylsulfonyl-N-(5-phenyl-1,2,4-thiadiazol-3-yl)spiro[indoline-3,4′-piperidine]-1′-carboxamide]
197 to 199	CS(=O)(=O)N1CC2(CCN(C(=O)Nc3cnc(-c4ccccc4Cl)cn3)CC2)c2ccccc21 [Compound 103, N-[5-(2-chlorophenyl)-2-pyrazinyl]-1-methylsulfonylspiro[indoline-3,4′-piperidine]-1′-carboxamide]
220 to 222	CCc1cc(-c2ccc(NC(=O)N3CCC4(CC3)CN(S(C)(=O)=O)c3ccccc34)cc2)ccn1.Cl
235 to 237	CS(=O)(=O)N1CC2(CCN(C(=O)Nc3cc(-c4ccccc4)no3)CC2)c2ccccc21
203 to 205	CS(=O)(=O)N1CC2(CCN(C(=O)Nc3cnc(-c4cccc(F)c4)cn3)CC2)c2ccccc21 [Compound 101, N-[5-(3-fluorophenyl)-2-pyrazinyl]-1-methylsulfonylspiro[indoline-3,4′-piperidine]-1′-carboxamide]
182 to 183	Cc1cccc2sc(NC(=O)N3CCC4(CC3)CN(S(C)(=O)=O)c3ccccc34)nc12 [Compound 137, N-(4-methylbenzothiazol-2-yl)-1-methylsulfonylspiro[indoline-3,4′-piperidine]-1′-carboxamide]
213 to 214	CS(=O)(=O)N1CC2(CCN(C(=O)Nc3cnc4ccc(Cl)cc4n3)CC2)c2ccccc21 [Compound 132, N-(7-chloroquinoxalin-2-yl)-1-methylsulfonylspiro[indoline-3,4′-piperidine]-1′-carboxamide]
189 to 192	CS(=O)(=O)N1CC2(CCN(C(=O)Nc3nc(-c4ccccc4)co3)CC2)c2ccccc21 [Compound 119, 1-methylsulfonyl-N-(4-phenyloxazol-2-yl)spiro[indoline-3,4′-piperidine]-1′-carboxamide]
260	CC(=O)N1CC2(CCN(C(=O)Nc3nnc(-c4ccccc4)s3)CC2)c2ccccc21 [Compound 600, 1-Acetyl-N-(5-phenyl-1,3,4-thiadiazol-2-yl)spiro[indoline-3,4′-piperidine]-1′-carboxamide]
194 to 196	COc1ccc2oc(NC(=O)N3CCC4(CC3)CN(S(C)(=O)=O)c3ccccc34)nc2c1 [Compound 134, N-(5-methoxybenzoxazol-2-yl)-1-methylsulfonylspiro[indoline-3,4′-piperidine]-1′-carboxamide]

Tested on: rats
Test: Observation of abnormal behavior after oral dosing in rats
Assay type: in vivo
Conditions: 100 mg/kg p.o., during 24 hour after dosing
Experimental: Compound 100 was orally administered 1 hour prior to the ICV-injection of bPP in satiated male Sprague-Dawley rats. […] Thus, Compound 100 has a potent in vivo Y5 antagonistic activity without causing any abnormal behavior.

abnormal behavior	Structure (SMILES)
did not cause any abnormal behavior	CS(=O)(=O)N1CC2(CCN(C(=O)Nc3cnc(-c4ccccc4)cn3)CC2)c2ccccc21 [Compound 100, 1 -Methanesulfonyl-N-(5-phenyl-2-pyrazinyl)spiro[indoline-3,4′-piperidine]-1′-carboxamide]

Tested on: bPP-induced food intake
Test: Bovine pancreatic polypeptide (bPP)-induced food intake in Sprague-Dawley rats
Assay type: in vivo
Conditions: 1, 3, 10 and 30 mg/kg orally, 1 hour prior to ICV bPP, satiated male rats, two hour post-injection food intake
Experimental: Male Sprague-Dawley rats aged 7 weeks (Charles River, Japan) were maintained under the controlled temperature (23±3° C.), humidity (55±15%) and light-dark cycle (7:00-19:00 light on). Rats were housed individually with ad libitum access food (CE-2, Clea Japan) and tap water. Rats were anesthetized with sodium pentobarbital (50 mg/kg, i.p., Dainabot, Japan). A permanent stainless steel guide cannula for intracerebroventricular (ICV) injection (21 gauge, 10 mm long) was stereotaxically implanted into the right lateral ventricle. The stereotaxic coordinates used were as follows: 0.9 mm posterior and 1.2 mm lateral to the bregma and 1.5 mm ventral to the brain surface. Animals were allowed at least 6-day recovery postoperatively before the start of feeding experiment. The day before the experiment, they were handled and underwent mock injection, and nocturnal food intake was measured. Rats which ate more than 15 g during the night before the experiment were used for the following experiment. Test compounds were suspended in 0.5% methylcellulose and orally administered by gavage. Administration of test compounds usually began at 10:00. Dosing volume was 5 ml/kg. […] Two hour post-injection food intake was measured for each rat. […]

Structure (SMILES)	bPP-induced food intake
CS(=O)(=O)N1CC2(CCN(C(=O)Nc3cnc(-c4ccccc4)cn3)CC2)c2ccccc21 [Compound 100, 1 -Methanesulfonyl-N-(5-phenyl-2-pyrazinyl)spiro[indoline-3,4′-piperidine]-1′-carboxamide]	suppressed bPP-induced food intake in a dose-dependent manner

Same assay, conditions: oral, 1 hour prior to ICV bPP, suppression of bPP-induced food intake

Structure (SMILES)	minimum effective dose [mg/kg]
CS(=O)(=O)N1CC2(CCN(C(=O)Nc3cnc(-c4ccccc4)cn3)CC2)c2ccccc21 [Compound 100, 1 -Methanesulfonyl-N-(5-phenyl-2-pyrazinyl)spiro[indoline-3,4′-piperidine]-1′-carboxamide]	3
